Common to all, as to assay: Minimum inhibitory concentration, micro broth dilution
What all share (assay type): cell-based
On the technique in general: Dilution methods test growth across graded concentrations, often in twofold steps.

For one assay, the system named is S. pneumoniae 1707/4. Particulars: Streptococcus pneumoniae. On the procedure: (§1) MIC determinations were performed using the micro broth dilution method with an inoculum of 5×10^5 cfu/ml in BHI medium. Growth was read after 24 h of incubation at 37° C. Test compounds were dissolved in dimethyl sulfoxide and diluted to a concentration not higher than 2.5% dimethyl sulfoxide. For S. pneumoniae 1707/4 and E. faecalis 27263 16% bovine serum were added and incubated under microaerophilic conditions.

Another assay has as its system E. faecalis 27263. The method, then:
as §1

For another assay, the system named is S. aureus 133. As to conditions: Staphylococcus aureus, 133; BHI medium, 24 h, 37° C.; read-out: MIC. The method, then:
as §1

In brackets after ≈: the same amount, converted by molar mass. Like-named read-outs stand apart in the source and are kept apart here. A value given as a limit tells only on which side of the number the result lay.

By MIC is commonly meant the lowest concentration that inhibits growth of the organism.

Regarding `COc1c(N2C[C@@H]3CCCN[C@@H]3C2)c(F)cc2c(=O)c(C(=O)O)cn(C3CC3)c12` [Moxifloxacin], the MIC with S. pneumoniae 1707/4 (1707/4, 24 h) amounted to 0.25 µg/mL (≈ 0.623 µM); with E. faecalis 27263 (Enterococcus faecalis, 27263, 24 h) it was 0.5 µg/mL (≈ 1.25 µM); in the assay with S. aureus 133, 0.06 µg/mL (≈ 0.149 µM).
With `CO[C@H]1/C=C/O[C@@]2(C)Oc3c(C)c(O)c4c(O)c(c(/C=N/N5CCN(C)CC5)c(O)c4c3C2=O)NC(=O)/C(C)=C\C=C\[C@H](C)[C@H](O)[C@@H](C)[C@@H](O)[C@@H](C)[C@H](OC(C)=O)[C@@H]1C` [Rifampicin], the MIC in the assay on S. pneumoniae 1707/4 (1707/4, BHI medium, 16% bovine serum, microaerophilic, 24 h, 37° C., read-out: MIC) is less than 0.05 µg/mL; in the assay on E. faecalis 27263 (Enterococcus faecalis, 27263, BHI medium, 16% bovine serum, microaerophilic, 24 h, 37° C., read-out: MIC), 3.1 µg/mL (≈ 3.77 µM); in the assay on S. aureus 133, less than 0.05 µg/mL.
